Measurements published in paper PMC10574475, “Development and Validation of a UHPLC–MS/MS Method for the Quantification of a Novel PYGB Inhibitor in Plasma: Application to Pharmacokinetic Studies” (Molecules, 2023).
“Also recorded” adds a separate entry of the source. Read-outs that look alike come from different tables or passages of the source.

Legend:
PYGB = tested on: PYGB; design: method as in PMID 36234871, PMID 36838691, PMID 36108587; settings: previous studies; read-out: IC50 of PYGB inhibition; cited from earlier work
[1] = Brain tissue distribution after intravenous administration; assay type: in vivo, SD rats; settings: rat; for brain tissue concentration: after injection
Description: Brain tissue homogenate samples for analysis were prepared by adding 9 volumes of homogenate solution (MeOH/15 mMPBS (1: 2, v/v)) to one volume of brain homogenate and diluting it 10-fold. Firstly, an aliquot of 40 μL of the brain homogenate sample to be tested (diluted sample), calibration standards, QC and diluted QC, a zero sample (with internal standard) and a blank sample (without internal standard) were added to the 96-well plate. Then, each sample (except blank samples) was quenched with 400 μL of IS1 (blank samples were quenched with 400 μL of acetonitrile), and the mixture was vortexed at 800 rpm for 10 min, followed by centrifugation at 3220× g at 4 °C for 15 min. Finally, a 50 μL aliquot of the supernatant was transferred to another clean 96-well plate and centrifuged at 3220× g for 15 min at 4 °C, then injected directly into the sample for UHPLC–MS/MS analysis.
(§1) Liquid chromatography conditions. UHPLC–MS/MS analyses were performed on an Agilent 1260 ultra-high performance liquid chromatograph (Agilent Technologies Co., Ltd., Santa Clara, CA, USA) and a QTRAP 5500 triple quadrupole tandem mass spectrometer (AB Sciex Pte. Ltd., Framingham, MA, USA). An ACQUITY UPLC BEH C18 column (2.1 × 50 mm, 1.7 µm) was used at […] with a flow rate of 0.3 mL/min and an injection volume of 2 µL. The analysis time was 5 min using an isocratic elution procedure of methanol and water (4:1, v/v).
In the preliminary brain tissue distribution study, 18 healthy male SD rats were injected with 3.2 mg/kg of compound 1 intravenously into the tail, and the animals were euthanized by CO2 inhalation at 0.25, 2 and 8 h after the administration of compound 1, respectively. Blood and brain tissue were then collected separately from each animal. Brain tissue was homogenized on wet ice using homogenizing buffer (MeOH/15 mM PBS = 1/2) at a ratio of 1:9 (1 g tissue to 9 mL buffer). The tissue homogenate was divided into two parts, 0.8 mL was used for analysis and the rest was discarded.
(§2) The data was processed using Origin 2021 to plot the drug concentration–time curve in plasma, and DAS 2.0 software was used to calculate the pharmacokinetic parameters by the […] statistical moment method, and the results of the experiments were expressed as mean ± standard deviation. Differences between groups were analyzed using SPSS 20.0, with p < 0.05 indicating statistical significance.

[2] = Stability of compound 1 in rat plasma under different storage conditions; assay type: in vitro ADME
Description: Stability was assessed under the four conditions (storage at room temperature for 12 h, […] for 24 h, refrigerator storage at −20 °C for 10 days, and freeze-thawing at −80 °C to 25 °C for 3 cycles) using the QC working solution (2.5, 800 ng/mL), and six preparations were made in parallel for each concentration. The stability of compound 1 in rat plasma was evaluated by calculating the peak area ratio (compound 1/IS) in plasma sample.

[3] = Plasma pharmacokinetics after intravenous administration (UHPLC–MS/MS); assay type: in vivo, SD rats; settings: rat plasma; for AUC(0-inf) / AUC(0-t) / Cmax / Vd / clearance / half-life: both sexes, SD
Description: 50 μL of the plasma to be tested was aspirated precisely and placed in a 1.5 mL centrifuge tube. Then 5 μL of internal standard working solution and 150 μL of methanol were added sequentially to the centrifuge tube, and the tube was vortexed for 60 s and centrifuged at 6147× g for 10 min. Finally, 100 μL of supernatant was taken and added to the injection vial for quantitative analysis by UHPLC–MS/MS.
as §1
In the plasma pharmacokinetic study, 30 healthy SD rats (half male and half female) were selected and randomly divided into 3 groups of 10 rats each. Three groups of SD rats were injected with a single dose of compound 1 (0.8 mg/kg, 1.6 mg/kg, 3.2 mg/kg) by tail vein, respectively. At 0.084, 0.25, 1, 2, 4, 6, 8, 12, 24 h after administration, 0.5 mL of blood was collected from the fundus venosus in heparin-anticoagulated tubes, and the plasma was separated by centrifugation at 6149× g for 10 min, and then placed in 1.5 mL Eppendorf tubes and stored in the refrigerator at −80 °C for measurement.
as §2

[4] = male, Sprague-Dawley (SD), brain tissue, 3.2 mg/kg iv
[5] = 3.2 mg/kg iv, 0.25 h, 3.2 mg/kg

AUC0–∞ ([1]; brain tissue, 3.2 mg/kg iv): 668 ng·h/g
concentration at 0.25 h ([1]; male, SD, brain, iv, 3.2 mg/kg, 3.2 mg/kg iv, 0.25 h, read-out: CBrain (concentration in brain tissue)): 440 ± 19.1 ng/g
concentration at 2 h ([1]; male, SD, brain, iv, 3.2 mg/kg, 3.2 mg/kg iv, 2 h, read-out: CBrain (concentration in brain tissue)): 111 ± 23.9 ng/g
concentration at 8 h ([1]; male, SD, brain, iv, 3.2 mg/kg, 3.2 mg/kg iv, 8 h, read-out: CBrain (concentration in brain tissue)): 4.17 ± 7.22 ng/g
Kp at 0.25 h ([1]; male, SD, brain/plasma, iv, 3.2 mg/kg, 3.2 mg/kg iv, 0.25 h, read-out: CBrain/CPlasma ratio): 0.112 ± 0.0185
Kp at 2 h ([1]; male, SD, brain/plasma, iv, 3.2 mg/kg, 3.2 mg/kg iv, 2 h, read-out: CBrain/CPlasma ratio): 0.112 ± 0.0292
Kp at 8 h ([1]; male, SD, brain/plasma, iv, 3.2 mg/kg, 3.2 mg/kg iv, 8 h, read-out: CBrain/CPlasma ratio): 0.09 ± 0.148
concentration at 0.25 h ([1]; male, SD, plasma, iv, 3.2 mg/kg, 3.2 mg/kg iv, 0.25 h, read-out: CPlasma (concentration in plasma)): 4020 ± 677 ng/g
concentration at 2 h ([1]; male, SD, plasma, iv, 3.2 mg/kg, 3.2 mg/kg iv, 2 h, read-out: CPlasma (concentration in plasma)): 1020 ± 275 ng/g
concentration at 8 h ([1]; male, SD, plasma, iv, 3.2 mg/kg, 3.2 mg/kg iv, 8 h, read-out: CPlasma (concentration in plasma)): 32.9 ± 14.5 ng/g
Cmax ([1]; male, SD, plasma, 3.2 mg/kg iv): 4890 ng/g
Tmax ([1]; male, SD, plasma, 3.2 mg/kg iv): 0 h
half-life ([1]; male, SD, plasma, 3.2 mg/kg iv): 1.14 h
Cmax [1, 4]: 440 ng/g
MRT [1, 4]: 1.65 h
Tmax [1, 4]: 0.25 h
half-life [1, 4]: 1.18 h
MRT ([1]; male, Sprague-Dawley (SD), plasma, 3.2 mg/kg iv): 1.47 h
AUC0–∞ ([1]; plasma, 3.2 mg/kg iv): 6659 ng·h/g
CBrain (concentration in brain tissue) [1, 5]: 440.0 ± 19.1 ng/g
CBrain/CPlasma ratio [1, 5]: 0.11 ± 0.019
CBrain (concentration in brain tissue) ([1]; 3.2 mg/kg iv, 2 h, 3.2 mg/kg): 111.0 ± 23.9 ng/g
CBrain/CPlasma ratio ([1]; 3.2 mg/kg iv, 2 h, 3.2 mg/kg): 0.11 ± 0.029
CBrain (concentration in brain tissue) ([1]; 3.2 mg/kg iv, 8 h, 3.2 mg/kg): 4.2 ± 7.2 ng/g
brain tissue concentration ([1]; 0.25 h (abstract)): 440 ± 19.1 ng/g
brain tissue concentration ([1]; 2 h (abstract)): 111 ± 23.9 ng/g
Stability, RE ([2]; 2.5 ng/mL, auto-sampler (24 h), 4 °C): 13.81%
Stability, RE ([2]; 2.5 ng/mL, room temperature (12 h)): 0.50%
Stability, RE ([2]; 2.5 ng/mL, storage at −20 °C (10 days)): 12.30%
Stability, RE ([2]; 2.5 ng/mL, thaw and freeze (from −80 °C to 25 °C), 3 cycles): 12.40%
Stability, RE ([2]; 800 ng/mL, auto-sampler (24 h), 4 °C): −3.20%
Stability, RE ([2]; 800 ng/mL, room temperature (12 h)): 1.03%
Stability, RE ([2]; 800 ng/mL, storage at −20 °C (10 days)): −0.65%
Stability, RE ([2]; 800 ng/mL, thaw and freeze (from −80 °C to 25 °C), 3 cycles): −3.64%
AUC(0-inf) ([3]; 0.8 mg/kg iv): 900 ± 441 ng·h/mL
AUC(0-t) ([3]; 0.8 mg/kg iv): 895 ± 440 ng·h/mL
Cmax ([3]; 0.8 mg/kg iv): 1180 ± 361 ng/mL
Vd ([3]; 0.8 mg/kg iv): 6.43 ± 3.48 L/kg
clearance ([3]; 0.8 mg/kg iv): 16.7 mL/min/kg
half-life ([3]; 0.8 mg/kg iv): 4.56 ± 2.17 h
AUC(0-inf) ([3]; 1.6 mg/kg iv): 1610 ± 371 ng·h/mL
AUC(0-t) ([3]; 1.6 mg/kg iv): 1600 ± 372 ng·h/mL
Cmax ([3]; 1.6 mg/kg iv): 2030 ± 289 ng/mL
Vd ([3]; 1.6 mg/kg iv): 7.51 ± 6.15 L/kg
clearance ([3]; 1.6 mg/kg iv): 17.3 mL/min/kg
half-life ([3]; 1.6 mg/kg iv): 4.8 ± 3.22 h
AUC(0-inf) ([3]; 3.2 mg/kg iv): 3630 ± 973 ng·h/mL
AUC(0-t) ([3]; 3.2 mg/kg iv): 3630 ± 970 ng·h/mL
Cmax ([3]; 3.2 mg/kg iv): 3710 ± 683 ng/mL
Vd ([3]; 3.2 mg/kg iv): 4.14 ± 1.23 L/kg
clearance ([3]; 3.2 mg/kg iv): 15.7 mL/min/kg
half-life ([3]; 3.2 mg/kg iv): 3.08 ± 0.58 h
Structure (SMILES): CCCC1(CCC)NC(=O)c2cc(NC(=O)c3cc4cc(Cl)ccc4[nH]3)ccc2O1 [compound 1, 5-chloro-N-(4-oxo-2,2-dipropyl-3,4-dihydro-2H-benzo[e][1,3]oxazin-6-yl)-1H-indole-2-carboxamide]
IC50 (PYGB): 0.0903 µM
crossing of the blood–brain barrier ([1]; iv): able to cross the blood–brain barrier; also recorded: could quickly cross the blood–brain barrier
linearity of pharmacokinetics ([3]; iv, dose range 0.8–3.2 mg/kg): linear pharmacokinetic characteristics; also recorded: linear pharmacokinetic profile
